Each structure is given as a SMILES string. Some results are limits rather than exact numbers.

In this assay the target is T1, KATP channels (Homo sapiens, UniProt O60706+Q14654).
T1 construct: TE671 human medulloblastoma cells were obtained from ATCC; host or cells: TE671 human medulloblastoma cells
T1 sequence (O60706 1-1549 isoform O60706-2): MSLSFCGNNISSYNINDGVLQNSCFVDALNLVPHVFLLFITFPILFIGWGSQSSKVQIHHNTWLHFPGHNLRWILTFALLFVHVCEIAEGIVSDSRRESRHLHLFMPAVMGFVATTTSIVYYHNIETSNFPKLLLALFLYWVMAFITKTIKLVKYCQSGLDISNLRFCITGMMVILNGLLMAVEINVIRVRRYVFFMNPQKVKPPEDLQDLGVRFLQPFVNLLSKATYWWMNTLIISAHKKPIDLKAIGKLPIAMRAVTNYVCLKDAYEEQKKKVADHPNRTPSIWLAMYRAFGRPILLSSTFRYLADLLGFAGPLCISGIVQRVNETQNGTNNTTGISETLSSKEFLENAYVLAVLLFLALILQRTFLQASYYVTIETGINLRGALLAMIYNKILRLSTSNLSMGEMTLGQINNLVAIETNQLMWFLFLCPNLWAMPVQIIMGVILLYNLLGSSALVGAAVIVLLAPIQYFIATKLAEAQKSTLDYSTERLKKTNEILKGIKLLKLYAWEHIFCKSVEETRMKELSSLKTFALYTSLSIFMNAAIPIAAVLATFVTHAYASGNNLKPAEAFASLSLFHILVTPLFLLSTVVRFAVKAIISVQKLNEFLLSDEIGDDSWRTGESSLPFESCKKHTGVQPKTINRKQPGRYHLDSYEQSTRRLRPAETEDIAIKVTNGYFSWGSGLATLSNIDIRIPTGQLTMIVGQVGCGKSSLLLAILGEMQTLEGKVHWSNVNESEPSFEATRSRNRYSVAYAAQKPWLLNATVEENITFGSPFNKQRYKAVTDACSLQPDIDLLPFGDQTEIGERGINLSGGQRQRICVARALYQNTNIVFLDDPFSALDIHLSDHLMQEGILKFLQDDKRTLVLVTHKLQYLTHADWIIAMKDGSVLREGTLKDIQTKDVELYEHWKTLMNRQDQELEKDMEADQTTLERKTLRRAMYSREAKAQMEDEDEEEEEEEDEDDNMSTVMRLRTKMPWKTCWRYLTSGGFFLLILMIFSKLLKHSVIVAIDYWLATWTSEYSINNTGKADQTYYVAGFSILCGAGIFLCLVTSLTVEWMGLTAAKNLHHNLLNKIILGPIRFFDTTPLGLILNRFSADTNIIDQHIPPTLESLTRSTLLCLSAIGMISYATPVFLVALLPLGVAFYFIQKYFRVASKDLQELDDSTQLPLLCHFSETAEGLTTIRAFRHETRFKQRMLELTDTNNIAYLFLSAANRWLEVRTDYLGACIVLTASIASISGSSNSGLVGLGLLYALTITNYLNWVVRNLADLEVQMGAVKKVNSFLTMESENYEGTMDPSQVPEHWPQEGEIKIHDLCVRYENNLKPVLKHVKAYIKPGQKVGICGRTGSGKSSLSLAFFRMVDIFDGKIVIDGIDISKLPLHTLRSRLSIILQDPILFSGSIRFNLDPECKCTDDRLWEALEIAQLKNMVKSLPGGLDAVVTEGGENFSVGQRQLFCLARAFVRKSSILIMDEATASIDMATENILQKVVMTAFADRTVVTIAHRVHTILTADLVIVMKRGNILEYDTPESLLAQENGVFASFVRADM
T1 sequence (Q14654 whole entry): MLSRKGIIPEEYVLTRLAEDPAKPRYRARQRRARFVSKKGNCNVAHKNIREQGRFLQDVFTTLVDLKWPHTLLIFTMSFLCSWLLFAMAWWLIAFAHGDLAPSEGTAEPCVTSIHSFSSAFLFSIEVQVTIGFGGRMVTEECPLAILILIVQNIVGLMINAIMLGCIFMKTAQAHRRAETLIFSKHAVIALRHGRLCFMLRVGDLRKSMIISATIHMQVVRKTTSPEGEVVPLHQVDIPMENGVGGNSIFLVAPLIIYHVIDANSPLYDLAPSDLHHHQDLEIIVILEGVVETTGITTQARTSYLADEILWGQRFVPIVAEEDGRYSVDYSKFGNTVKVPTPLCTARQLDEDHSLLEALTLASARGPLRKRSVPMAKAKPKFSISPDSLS
In words: Potassium Channel Assay (FLIPR membrane potential, TE671 cells). It counts as cell-based. Particulars: TE671 human medulloblastoma cells, Membrane Potential Assay Dye, room temperature, hyperpolarization from KATP channel opening. How it is done: TE671 human medulloblastoma cells were obtained from ATCC and grown in Dulbecco's modified Eagle's medium (DMEM) supplemented with 10% fetal bovine serum, 100 U/ml penicillin and 100 U/ml streptomycine.
The day before testing, the cells were plated in black 96-well plates at 50K/well. On the day of testing, the growth media was removed, then 100 μl of FLIPR buffer (20 mM HEPES, 120 mM NaCl, 2 mM KCl, 2 mM CaCl2, 1 mM MgCl2, 5 mM Glucose) and 100 μl of Membrane Potential Assay Dye (Molecular Devices) dissolved in FLIPR buffer were added to each well. The cells were incubated at room temperature for 15 to 30 min.
The effect of test compounds on KATP channels were evaluated on a fluorometric imaging plate reader (FLIPR, Molecular Devices) at room temperature. After a baseline period, 50 μl of 5× stock solution of test compound prepared in FLIPR buffer was added and fluorescent change was monitored for 3 minutes. After this reading, glyburide, a KATP channel blocker, was added to a final concentration of 5 μM to check the specificity of the test compound as a KATP channel openers. Hyperpolarization resulting from KATP channel opening was observed as a decrease in fluorescent intensity.
Representative compounds of the present invention were tested according to the procedure described above, with results as listed in Table 7, below.
The EC50 is the midpoint of the concentration-response curve. For `CC1(C)Oc2ccc(C#N)cc2[C@@H](Sc2nc3cc(Cl)ccc3[nH]2)C1O` (stereo in doubt) [Compound 29, (3S,4R)-4-(5-Chloro-1H-benzoimidazol-2-ylsulfanyl)-3-hydroxy-2,2-dimethyl-chroman-6-carbonitrile], the response was half-maximal at 6.18 µM (EC50).
With `CC1(C)Oc2ccc(C(=O)c3ccccc3)cc2[C@@H](Nc2noc3ccc(Cl)cc23)[C@@H]1O` [Compound 92, [4R-(5-Chloro-benzo[d]isoxazol-3-ylamino)-3S-hydroxy-2,2-dimethyl-chroman-6-yl]-phenyl-methanone], the EC50 is 20.4 µM.
Turning to `CC1(C)Oc2ccc(C#N)cc2[C@@H](NP(C)(=O)c2ccccc2)[C@@H]1O` (stereo partly drawn) [Compound 28], the EC50 came to 18.6 µM.
Regarding `Cc1cccc2c(=O)n([C@@H]3c4cc(C#N)ccc4OC(C)(C)[C@H]3O)oc12` [Compound 32, 3S-Hydroxy-2,2-dimethyl-4R-(7-methyl-3-oxo-3H-benzo[d]isoxazol-2-yl)-chroman-6-carbonitrile], the EC50 turned out to be 22.6 µM.
For `CC1(C)Oc2ccc(S(=O)(=O)c3ccccc3)cc2[C@@H](n2oc3cc(Cl)ccc3c2=O)[C@@H]1O` [Compound 78, 2-(6-Benzenesulfonyl-3S-hydroxy-2,2-dimethyl-chroman-4-yl)-6-chloro-4R-benzo[d]isoxazol-3-one] the value was 0.1 µM; for `CC1(C)Oc2ccc(C#N)cc2[C@@H](SC2=NCCc3ccccc32)[C@@H]1O` [Compound 42, 4R-(3,4-Dihydro-isoquinolin-1-ylsulfanyl)-3S-hydroxy-2,2-dimethyl-chroman-6-carbonitrile], more than 30 µM; for `CC1(C)Oc2ccc(S(=O)(=O)N3CCCCC3)cc2[C@@H](n2oc3cc(Cl)ccc3c2=O)[C@@H]1O` [Compound 84, 6-Chloro-2-[3S-hydroxy-2,2-dimethyl-6-(piperidine-1-sulfonyl)-chroman-4-yl]-R-benzo[d]isoxazol-3-one], 1.08 µM.
Regarding `CC1(C)Oc2ccc(C#N)cc2[C@@H](Oc2nsc3cc([N+](=O)[O-])ccc23)[C@@H]1O` [Compound 41, 3S-Hydroxy-2,2-dimethyl-4R-(6-nitro-benzo[d]isothiazol-3-yloxy)-chroman-6-carbonitrile], the response was half-maximal at 4.1 µM (EC50).
In turn, `CCOc1ccc2sc(N[C@@H]3c4cc(C#N)ccc4OC(C)(C)[C@H]3O)nc2c1` (racemic) [Compound 4, 4-(5-Ethoxy-benzothiazol-2-ylamino)-3-hydroxy-2,2-dimethyl-chroman-6-carbonitrile] showed a half-maximal effective concentration (EC50) of 2.6 µM.
For `CC1(C)Oc2ccc(C#N)cc2[C@@H](Oc2ccc(-c3ccccc3)nn2)[C@@H]1O` (racemic) [Compound 52, 3-Hydroxy-2,2-dimethyl-4-(6-phenyl-pyridazin-3-yloxy)-chroman-6-carbonitrile] the value was 3.9 µM.
For `CC1(C)Oc2ccc(C#N)cc2[C@@H](OP(=O)(c2ccccc2)c2ccccc2)[C@@H]1O` [Compound 27], the EC50 is more than 30 µM.
Consider `CC1(C)Oc2ccc(C#N)cc2[C@@H](S(=O)(=O)c2nc3cc(Cl)ccc3o2)[C@@H]1O` (racemic) [Compound 17, 4-(5-Chloro-benzooxazole-2-sulfonyl)-3-hydroxy-2,2-dimethyl-chroman-6-carbonitrile], for which the EC50 was 6.77 µM.
On to `CC1(C)Oc2ccc(C#N)cc2[C@@H](N2C(=O)c3ccncc3C2=O)[C@@H]1O` [Compound 26, 4R-(1,3-Dioxo-1,3-dihydro-pyrrolo[3,4-c]pyridin-2-yl)-3S-hydroxy-2,2-dimethyl-chroman-6-carbonitrile], for which the midpoint of the response, the EC50, lay at 6.04 µM.
In turn, `CC1(C)Oc2ccc(C#N)cc2[C@@H](Oc2ccn(-c3ccccc3)n2)[C@@H]1O` (racemic) [Compound 58, 3-Hydroxy-2,2-dimethyl-4-(1-phenyl-1H-pyrazol-3-yloxy)-chroman-6-carbonitrile] displayed an EC50 of 2.62 µM.
In turn, `CC1(C)Oc2ccc(S(=O)(=O)c3ccccc3)cc2[C@@H](Nc2noc3ccc(Cl)cc23)[C@@H]1O` [Compound 74, 6-Benzenesulfonyl-4R-(5-chloro-benzo[d]isoxazol-3-ylamino)-2,2-dimethyl-chroman-3S-ol] showed an EC50 of 1.37 µM.

The values above are taken from patent US7812183B2, “Benzopyran derivatives as potassium channel openers” (Janssen Pharmaceutica NV, priority 2005, dated 2010).
